Assay results published in PMC6501426 (Clinical Epigenetics, 2019).

Experiments:
[1] = biological target: T1, human C-terminal DNMT3A (Homo sapiens, UniProt Q9Y6K1); assay: DNMT3A restriction-based fluorescence assay; format: biochemical
T1 construct: the C-terminal catalytic domain of human DNMT3A (hDNMT3A)
Protocol: DNMT3A enzyme inhibition was adapted from the restriction-based fluorescence assay protocol described in Ceccaldi et al.. Briefly, it is performed in a 384-well microplate in a total volume of 50 μL. An oligonucleotide labeled at the 5′ end with biotin is hybridized to his complementary strand labeled at the 3′ end with 6-carboxyfluorescein. The DNA duplex thus formed contains only one single CpG site overlapping with a restriction site of a methylation sensitive restriction enzyme. The duplex is transferred in the wells coated with avidin. Thus, the duplex is fixed to the plate. The methylation reaction is performed by adding human C-terminal DNMT3A at the final concentration of 4 ng/μL in a total volume of 50 μL in the presence of the chemical compound to be tested at the desired concentration and the cofactor SAM at the final concentration of 20 μM. After incubation (1 h at 37 °C), the plate is washed and the methylation sensitive restriction enzyme HpyCH4IV is added. After 1-h incubation at 37 °C, the plate is washed and the fluorescence measured with a PerkinElmer Envision Multilabel Plate Reader (PerkinElmer, Villebon-sur-Yvette, France). The data are expressed as a percentage of inhibition vs. log concentration (M). Data are normalized referring to the “restriction control” (wells coated with labeled duplex not treated nor exposed to DNMT3A, but only cleaved by HpyCH4IV) as the maximum of inhibition (100%) and to the “DMSO control” (wells coated with labeled duplex but treated just with 0.1% DMSO exposed to DNMT3A and then to HpyCH4IV) as the minimum of inhibition (0%; total methylation).

[2] = tested on: primary osteosarcoma cell lines; assay: Growth inhibition in panel of primary osteosarcoma cell lines; format: cell-based; conditions: Homo sapiens; range over the osteosarcoma panel
Protocol: To perform osteosarcoma cell growth inhibition experiments, 2 × 10^5 cells/well were plated, and MC3353 (0.1–30 μM) or DAC (0.5 μM) was added after 24 h. Cells were exposed for up to 96 h before being counted by Trypan blue vital cell count (Sigma-Aldrich, Milan, Italy). In parallel, the cells were treated with DMSO-containing medium as a control. The highest final concentration of DMSO in the medium was < 0.005%, and DMSO had no effect on cell growth.
(§1) IC50 values of compounds against cellular viability were determined by using nonlinear regression fitting curves with GraphPad Prism 8 or CalcuSyn software The t test used for statistical analyses was performed with GraphPad Prism 8. All the tests were one-tailed, and a p value < 0.05 was considered statistically significant.

[3] = tested on: KG-1 cells; assay: Nuclear morphology analysis (Hoechst/PI); format: cell-based, human; conditions: 72 h; considerable increase between 0.5 and 1 μM
Protocol: (§2) Proliferation and viability of U-937, KG-1, RAJI, PC-3, MDA-MB-231, RPMI1788, PBMCs, and PHA_PBMCs were assessed by trypan blue exclusion assays at the indicated time points. Nuclear morphology changes associated with apoptosis and necrosis were evaluated by fluorescence microscopy after Hoechst and propidium iodide (PI) staining as previously described.
(§3) Fig. 6 Nuclear morphology analysis in U-937, RAJI, KG-1, and RPMI1788 cells. Cells were treated with increasing doses of MC3353. Upper panels—after 72 h of treatment, the nuclear morphology was analyzed by fluorescence microscopy after Hoechst and PI staining. Pictures are representative of three independent experiments. Lower panels—the results of cell counting are represented as the mean (± SD) of three independent experiments

[4] = tested on: U-937 cells; assay: Nuclear morphology analysis (Hoechst/PI); format: cell-based, human; conditions: 72 h; considerable increase between 0.5 and 1 μM
Protocol: as §2, §3

[5] = tested on: RAJI cells; assay: Nuclear morphology analysis (Hoechst/PI); format: cell-based, human; conditions: 72 h; drastic increase in cell death rate between 0.5 and 1 μM
Protocol: as §2, §3

[6] = tested on: PHA_PBMCs (phytohemagglutinin-stimulated PBMCs); assay: Cell viability, trypan blue exclusion; format: cell-based; conditions: Homo sapiens, PBMC; 48 h of treatment; proliferating, PHA-stimulated; read-out: IC50 ± SD, cell viability, PHA_PBMCs
Protocol: (§4) Peripheral blood mononuclear cells (PBMCs) from healthy donors were isolated as previously described. Freshly isolated PBMCs were either cultured and treated at 1.10^6 cells/mL (non-proliferating PBMCs) or stimulated with phytohaemoagglutinin (PHA) and interleukin (IL)-2 (called PHA_PBMCs) to induce blastogenesis in T lymphocytes before treatments as previously described. Briefly, freshly isolated PBMCs were seeded at a concentration of 2.10^6 cells/mL in RMPI 1640 supplemented with 1% antibiotic-antimycotic (Lonza, Verviers, Belgium) and 10% human AB serum (Corning, Fisher scientific, Merelbeke, Belgium). After overnight incubation, floating lymphoid cells were collected and seeded at 1.10^6 cells/mL in RMPI 1640 supplemented with 1% antibiotic-antimycotic, 5% FBS, 10% human AB serum, 1 μg/mL PHA (Gentaur, Kampenhout, Belgium), 50 U/mL IL-2 (Roche, Prophac, Luxembourg City, Luxembourg), 1% non-essential amino acids (Invitrogen, Luxembourg), 1% HEPES (Invitrogen, Luxembourg), 1% sodium pyruvate (Invitrogen, Luxembourg), and 0.1% β-mercaptoethanol (Invitrogen, Luxembourg). After 72 h, the cells were seeded at 1.10^6 cells/mL in the same mitogenic growth medium described just above and treated with test compounds.
as §2, §1

[7] = tested on: PBMCs (non-proliferating, healthy donors); assay: Cell viability, trypan blue exclusion; format: cell-based; conditions: Homo sapiens, PBMC, 48 h of treatment, read-out: IC50 ± SD, cell viability, PBMCs
Protocol: as §4, §2, §1

T1 sequence (Q9Y6K1 634-912 limits assumed): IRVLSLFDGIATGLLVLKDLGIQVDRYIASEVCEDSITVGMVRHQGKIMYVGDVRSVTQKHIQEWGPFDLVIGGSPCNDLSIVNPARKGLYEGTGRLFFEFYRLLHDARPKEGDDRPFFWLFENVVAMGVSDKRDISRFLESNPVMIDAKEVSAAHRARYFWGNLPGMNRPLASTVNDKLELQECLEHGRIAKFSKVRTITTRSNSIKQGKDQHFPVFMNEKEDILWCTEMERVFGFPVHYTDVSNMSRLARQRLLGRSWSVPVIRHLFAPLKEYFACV

For O=C(Nc1ccc(NC(=O)c2ccc(Nc3ccnc4ccccc34)cc2)cc1)OCc1ccccc1 [MC3353, Benzyl (4-(4-(quinolin-4-ylamino)benzamido)phenyl)carbamate], the EC50 ([1]; fluorescent assay, C-terminal catalytic domain, read-out: EC50 ± SD, hDNMT3A) was 17 ± 3 µM, the “fold higher potency than RG-108 against hDNMT3A” value ([1]; ratio of EC50 values) was over 29 fold and the “fold lower potency than SGI-1027 against hDNMT3A” value ([1]; ratio of EC50 values) was 20 fold. For the same compound, the IC50 [2] was 1.1 to 2.4 µM, the “cell death modality, KG-1” value [3] was “induced mainly apoptosis” and the “cell death modality, U-937” value [4] was “induced mainly apoptosis”. For the same compound, the “cell death modality, RAJI” value [5] was “shift from apoptosis to necrosis”, the IC50 [6] was 4.6 ± 0.5 µM and the IC50 [7] was 8.9 ± 4.2 µM.
